Reference: publication PMC6787163, “Systematic Dual Targeting of Dendritic Cell C-Type Lectin Receptor DC-SIGN and TLR7 Using a Trifunctional Mannosylated Antigen” (Frontiers in Chemistry, 2019)
Entries after “also recorded” stand apart in the source; their conditions may differ.

Key:
[1] = molecular target: T1, DC-SIGN S-ECD (Homo sapiens, UniProt Q9NNX6); assay: SPR direct interaction assay on oriented DC-SIGN S-ECD surface; assay type: binding
T1 construct: The ECD of DC-SIGN (residues 66–404) was overexpressed and purified as previously described; made in house
T1 sequence (Q9NNX6 66-404): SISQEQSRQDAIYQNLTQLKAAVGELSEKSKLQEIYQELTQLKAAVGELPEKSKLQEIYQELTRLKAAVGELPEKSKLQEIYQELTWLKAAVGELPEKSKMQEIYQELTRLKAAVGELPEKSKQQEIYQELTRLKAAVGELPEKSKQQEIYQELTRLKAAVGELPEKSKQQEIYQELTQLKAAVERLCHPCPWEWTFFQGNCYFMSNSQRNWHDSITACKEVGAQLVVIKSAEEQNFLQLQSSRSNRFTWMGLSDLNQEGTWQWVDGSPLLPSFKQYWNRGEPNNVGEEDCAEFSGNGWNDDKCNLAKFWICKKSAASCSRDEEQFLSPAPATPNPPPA
Procedure, shortened: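 Tetrameric DC-SIGN ECD carrying an N-terminal StrepTagII was captured in oriented form on streptactin (2,500–3,000 RU), with a streptactin-only control cell. Glycoclusters were injected at increasing concentrations (30 μL/min) in Tris pH 8 buffer with 150 mM NaCl and 4 mM CaCl2. Apparent Kd from a 1:1 fit reflects binding to the whole surface.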

[2] = system: moDCs co-cultured with gp100-specific T cells; assay: Antigen presentation by moDCs to gp100-specific T cells (IFNγ ELISA); assay type: cell-based, human; details: 20 μM conjugate, 30 min pulse, overnight co-culture
Method: Lastly, antigen presentation was determined in a human T cell antigen presentation model (Figure 5D). In this assay, the potency of DCs to present the internalized gp100 antigen on the cell surface to gp100-specific T cells is analyzed. The IFNγ secretion of activated T cells upon recognition of the cell surface presented gp100 is measured. Day 5 moDCs were stimulated for 30 min, as the internalization was relatively fast, with the glycopeptides at the assay-optimized concentration of 20 μM (Supplementary Figure 1H). The constructs were washed away before overnight co-culture with gp100-specific T cells. […] The obstruction of antigen presentation was primarily seen with the B6-gp100-TLR7L contradicting the assumption that the best binding constructs will simultaneously maximize T cell activation. […]
Immature day 5 moDCs were seeded in 96-well plates (Greiner) at 50·10^3 cells/well and incubated with 20 μM of the different gp100-conjugates in the presence or absence of the TLR4 ligand LPS (10 ng/mL) or the TLR7 ligand Imiquimod (2.5 μg/mL). […] IFNγ in the supernatant was measured by sandwich ELISA according to the manufacturer's protocol (Biosource), and measured by spectrophotometric analysis on the iMarkTM Microplate Absorbance Reader (Bio-RAD) at 450 nm.

CCCCOc1nc(N)c2[nH]c(=O)n(Cc3ccc(C(=O)NCCOCCOCC(=O)NCCCC[C@H](NC(=O)CNC(=O)[C@H](CCCNC(=N)N)NC(=O)[C@H](Cc4c[nH]c5ccccc45)NC(=O)[C@H](CC)NC(=O)[C@H](CC(=O)O)NC(=O)[C@H](CC(C)C)NC(=O)[C@H](CCCNC(=N)N)NC(=O)[C@H](CCC(N)=O)NC(=O)[C@H](C)NC(=O)[C@H](CCC(=O)O)NC(=O)[C@@H](NC(=O)[C@H](Cc4c[nH]c5ccccc45)NC(=O)[C@H](CCC(=O)O)NC(=O)[C@@H]4CCCN4C(=O)[C@H](Cc4ccc(O)cc4)NC(=O)[C@H](CC(C)C)NC(=O)[C@H](CCC(N)=O)NC(=O)[C@H](CCCNC(=N)N)NC(=O)[C@H](CC(N)=O)NC(=O)[C@H](C)NC(=O)[C@@H](NC(=O)[C@@H](NC(=O)[C@@H]4CCCN4C(=O)CNC(=O)[C@@H]4CCCN4C(=O)[C@H](CCC(=O)O)NC(=O)[C@H](CC(C)C)NC(=O)[C@H](Cc4ccc(O)cc4)NC(=O)[C@@H](NC(=O)[C@H](Cc4c[nH]cn4)NC(=O)[C@@H](NC(=O)[C@@H](NC(=O)[C@H](CCCCn4cc(CCC(=O)NCCCC[C@H](NC(=O)CNC(=O)[C@H](CCCCn5cc(CO[C@H]6O[C@H](CO[C@H]7O[C@H](CO)[C@@H](O)[C@H](O)[C@@H]7O)[C@@H](O)[C@H](O[C@H]7O[C@H](CO)[C@@H](O)[C@H](O)[C@@H]7O)[C@@H]6O)nn5)NC(=O)[C@H](CCCCn5cc(CO[C@H]6O[C@H](CO[C@H]7O[C@H](CO)[C@@H](O)[C@H](O)[C@@H]7O)[C@@H](O)[C@H](O[C@H]7O[C@H](CO)[C@@H](O)[C@H](O)[C@@H]7O)[C@@H]6O)nn5)NC(=O)[C@H](CCCCn5cc(CO[C@H]6O[C@H](CO[C@H]7O[C@H](CO)[C@@H](O)[C@H](O)[C@@H]7O)[C@@H](O)[C@H](O[C@H]7O[C@H](CO)[C@@H](O)[C@H](O)[C@@H]7O)[C@@H]6O)nn5)NC(=O)[C@H](CCCCn5cc(CO[C@H]6O[C@H](CO[C@H]7O[C@H](CO)[C@@H](O)[C@H](O)[C@@H]7O)[C@@H](O)[C@H](O[C@H]7O[C@H](CO)[C@@H](O)[C@H](O)[C@@H]7O)[C@@H]6O)nn5)NC(=O)[C@H](CCCCn5cc(CO[C@H]6O[C@H](CO[C@H]7O[C@H](CO)[C@@H](O)[C@H](O)[C@@H]7O)[C@@H](O)[C@H](O[C@H]7O[C@H](CO)[C@@H](O)[C@H](O)[C@@H]7O)[C@@H]6O)nn5)NC(=O)[C@H](CCCCn5cc(CO[C@H]6O[C@H](CO[C@H]7O[C@H](CO)[C@@H](O)[C@H](O)[C@@H]7O)[C@@H](O)[C@H](O[C@H]7O[C@H](CO)[C@@H](O)[C@H](O)[C@@H]7O)[C@@H]6O)nn5)NC(C)=O)C(N)=O)nn4)NC(C)=O)C(C)C)[C@@H](C)O)[C@@H](C)O)C(C)C)[C@@H](C)O)[C@@H](C)O)C(N)=O)cc3)c2n1 [E6-gp100-TLR7L]
decrease of DC-SIGN affinity on conjugation to gp100 or gp100-TLR7L (factor) ([1]; Kd-app of conjugate vs unconjugated cluster): about 10 | Kd ([1]; Kdapp, SPR direct interaction, oriented tetrameric DC-SIGN ECD surface, apparent Kd): 31 µM | antigen presentation (IFNγ release of activated gp100-specific T cells) [2]: increased T cell activation; also recorded: strongest antigen presentation
